In patent publication US20230399341A1, “7-PHENYL SUBSTITUTED 2-AMINOQUINAZOLINE INHIBITORS OF HPK1” (MERCK SHARP & DOHME LLC, priority 2020, published 2023):

target: T1, Human HPK1, catalytic domain (Homo sapiens, UniProt Q92918); test: HPK1-SLP76 TR-FRET Assay; type: biochemical; conditions: 75 pM HPK1, ATP 10 uM, SLP76 10 nM, 30 min pre-incubation, 60 min reaction
T1 sequence (Q92918 1-346): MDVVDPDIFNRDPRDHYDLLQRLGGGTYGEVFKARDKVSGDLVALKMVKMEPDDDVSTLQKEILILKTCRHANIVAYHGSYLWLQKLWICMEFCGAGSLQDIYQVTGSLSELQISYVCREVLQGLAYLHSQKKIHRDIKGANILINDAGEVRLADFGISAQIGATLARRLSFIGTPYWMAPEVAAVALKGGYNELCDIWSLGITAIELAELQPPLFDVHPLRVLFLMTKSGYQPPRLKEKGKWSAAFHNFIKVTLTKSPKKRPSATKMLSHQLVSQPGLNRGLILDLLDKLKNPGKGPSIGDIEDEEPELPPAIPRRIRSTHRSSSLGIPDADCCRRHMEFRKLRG

Structure (SMILES) | IC50
COc1cc2c(cc1Nc1ncc3cc(C#N)c(-c4cnc5c(c4C)NCCO5)cc3n1)CN(C)CC2 [Compound 1-97, 2-[(6-methoxy-2-methyl-1-1,2,3,4-tetrahydroisoquinolin-7-yl)amino]-7-(8-methyl-2,3-dihydro-1H-pyrido[2,3-b][1,4]oxazin-7-yl)quinazoline-6-carbonitrile] | 53.8 nM
COc1cc2c(cc1Nc1ncc3ccc(-c4cc(N)ccc4C)cc3n1)CNCC2 [Compound 1-93, 7-(5-amino-2-methylphenyl)-N-(6-methoxy-1,2,3,4-tetrahydroisoquinolin-7-yl)quinazolin-2-amine] | 481 nM
COc1cc2c(cc1Nc1ncc3ccc(-c4cccc5c4CNCC5)cc3n1)CN(C)CC2 [Compound 1-9, N-(6-methoxy-2-methyl-1,2,3,4-tetrahydroisoquinolin-7-yl)-7-(1,2,3,4-tetrahydroisoquinolin-8-yl)quinazolin-2-amine] | 42.9 nM
COc1cc2c(cc1Nc1ncc3ccc(-c4ccc(CC#N)nc4)cc3n1)CN(C)CC2 [Compound 1-108, (5-{2-[(6-methoxy-2-methyl-1,2,3,4-tetrahydroisoquinolin-7-yl)amino]quinazolin-7-yl}pyridin-2-yl)acetonitrile] | 56 nM
COc1cc2c(cc1Nc1ncc3ccc(-c4ccc(C#N)cc4C)cc3n1)CNCC2 [Compound 1-33, 4-{2-[(6-methoxy-1,2,3,4-tetrahydroisoquinolin-7-yl)amino]quinazolin-7-yl}-3-methylbenzonitrile] | 136 nM
Cc1c(-c2cc3nc(Nc4ccc(C5CCN(C)C5=O)cc4)ncc3cc2F)cnc2c1NCCO2 (single isomer, unassigned) [Compound 1-127, (R of S)-3-(4-{[6-fluoro-7-(8-methyl-2,3-dihydro-1H-pyrido[2,3-b][1,4]oxazin-7-yl)quinazolin-2-yl]amino}phenyl)-1-methylpyrrolidin-2-one] | 0.949 nM
COc1cc2c(cc1Nc1ncc3ccc(-c4cnc(N)nc4C)cc3n1)CN(C)CC2 [Compound 1-19, 7-(2-amino-4-methylpyrimidin-5-yl)-N-(6-methoxy-2-methyl-1,2,3,4-tetrahydroisoquinazolin-7-yl)quinazolin-2-amine] | 2.57 nM
Cc1c(-c2cc3nc(Nc4ccc(C(C)S(C)(=O)=O)cc4)ncc3cc2F)cnc2c1NCCO2 (single isomer, unassigned) [Compound 1-124, (R or S)-6-fluoro-7-(8-methyl-2,3-dihydro-1H-pyrido[2,3-b][1,4]oxazin-7-yl)-N-{4-[1-(methylsulfonyl)ethyl]phenyl} quinazolin-2-amine] | 0.0411 nM

The remaining lines, values ahead:

IC50 | Structure (SMILES)
1.27 nM | COc1cc2c(cc1Nc1ncc3c(N)c(F)c(-c4cnc(-c5ncco5)cc4C)cc3n1)CN(C)CC2 [Compound 2-61, 6-fluoro-N~2~-(6-methoxy-2-methyl-1,2,3,4-tetrahydroisoquinolin-7-yl)-7-[4-methyl-6-(1,3-oxazol-2-yl)pyridin-3-yl]quinazoline-2,5-diamine]
270 nM | COc1ccc(CC#N)cc1Nc1ncc2c(N)c(F)c(-c3cnc4c(c3C)NCCO4)cc2n1 [Compound 2-5, (3-{[5-amino-6-fluoro-7-(8-methyl-2,3-dihydro-1H-pyrido[2,3-b][1,4]oxazin-7-yl)quinazolin-2-yl]amino}-4-methoxyphenyl)acetonitrile]
0.0862 nM | Cc1c(-c2c(F)c(N)c3cnc(Nc4cc5c(cc4F)CCN(C)C5)nc3c2Cl)cnc2c1NCCO2 [Compound 2-107, (+ or −)-8-chloro-6-fluoro-N2-(6-fluoro-2-methyl-1,2,3,4-tetrahydroisoquinolin-7-yl)-7-(8-methyl-2,3-dihydro-1H-pyrido[2,3-b][1,4]oxazin-7-yl)quinazoline-2,5-diamine]
1.67 nM | COc1cc2c(cc1Nc1ncc3ccc(Nc4nccc(CO)n4)cc3n1)CN(C)CC2 [Compound 3-35, [2-({2-[(6-methoxy-2-methyl-1,2,3,4-tetrahydroisoquinolin-7-yl)amino]quinazolin-7-yl}-amino)pyrimidin-4-yl]methanol]
108 nM | COc1cc2c(cc1Nc1ncc3ccc(N[C@@H]4COC[C@@H]4F)cc3n1)CN(C)CC2 [Compound 3-67, N~7~-[(3R,4R)-4-fluorooxolan-3-yl]-N~2~-(6-methoxy-2-meth-yl-1,2,3,4-tetrahydroisoquinolin-7-yl)quinazoline-2,7-diamine]
5.76 nM | COc1cc2c(cc1Nc1ncc3c(N)c(F)c(-c4cnc5c(c4C)NCCO5)c(Cl)c3n1)CN(C(C)C)CC2 [Compound 2-106, (+ or −)-8-chloro-6-fluoro-N2-(2-isopropyl-6-methoxy-1,2,3,4-tetrahydroisoquinolin-7-yl)-7-(8-methyl-2,3-dihydro-1H-pyrido[2,3-b][1,4]oxazin-7-yl)quinazoline-2,5-diamine]
20.5 nM | COc1cc2c(cc1Nc1ncc3ccc(Nc4cccc(CO)n4)cc3n1)CN(C)CC2 [Compound 3-29, [6-({2-[(6-methoxy-2-methyl-1,2,3,4-tetrahydroisoquinolin-7-yl)amino]quinazolin-7-yl}-amino)pyridin-2-yl]methanol]
0.795 nM | COc1cc2c(cc1Nc1ncc3c(N)c(F)c(-c4cnc5c(c4C)NCCO5)c(Cl)c3n1)CN(C)CC2(C)C [Compound 2-104, 8-chloro-6-fluoro-N2-(6-methoxy-2,4,4-trimethyl-1,2,3,4-tetrahydroisoquinolin-7-yl)-7-(8-methyl-2,3-dihydro-1H-pyrido[2,3-b][1,4]oxazin-7-yl)quinazoline-2,5-diamine]
0.121 nM | COc1cc(CS(C)(=O)=O)ccc1Nc1ncc2c(N)c(F)c(-c3cnc4c(c3C)NCCO4)c(Cl)c2n1 (single isomer, unassigned) [Compound 2-101, (+ or −)-8-chloro-6-fluoro-N~2~-{2-methoxy-4-[(methylsulfony])methyl] phenyl}-7-(8-methyl-2,3-dihydro-1H-pyrido[2,3-b][1,4]oxazin-7-yl)quinazoline-2,5-diamine]
0.0861 nM | Cc1c(-c2cc3nc(Nc4ccc(C(C)S(C)(=O)=O)cc4)ncc3c(N)c2F)cnc2c1NCCO2 (single isomer, unassigned) [Compound 2-63, (R or S)-6-fluoro-7-(8-methyl-2,3-dihydro-1H-pyrido[2,3-b][1,4]oxazin-7-yl)-N˜2˜-{4-[1-(methylsulfonyl)ethyl]phenyl}quinazoline-2,5-diamine]
5.77 nM | COc1cc2c(cc1Nc1ncc3c(N)c(F)c(-c4cnc5c(c4C)NCCO5)c(Cl)c3n1)CN(C)CC2 [Compound 2-94, (+ or −)-8-chloro-6-fluoro-N~2~-(6-methoxy-2-methyl-1,2,3,4-tetrahydroisoquinolin-7-yl)-7-(8-methyl-2,3-dihydro-1H-pyrido[2,3-b][1,4]oxazin-7-yl)quinazoline-2,5-diamine]
0.128 nM | CCc1ccc(Nc2ncc3c(N)c(F)c(-c4cnc5c(c4C)NCCO5)cc3n2)cn1 [Compound 2-173, N~2~-(6-ethylpyridin-3-yl)-6-fluoro-7-(8-methyl-2,3-dihydro-1H-pyrido[2,3-b][1,4]oxazin-7-yl)quinazoline-2,5-diamine]
0.0932 nM | Cc1c(-c2cc3nc(Nc4ccc(NS(C)(=O)=O)cc4)ncc3c(N)c2F)cnc2c1NCCO2 [Compound 2-16, N-(4-{[5-amino-6-fluoro-7-(8-methyl-2,3-dihydro-1H-pyrido[2,3-b][1,4]oxazin-7-yl)quinazolin-2-yl]amino}phenyl)methane-sulfonamide]
